Test results as given in patent US20230293540A1, “ANTICOAGULANT COMPOUNDS, METHODS AND DEVICES FOR OPHTHALMIC USE” (Elixir Medical Corporation, priority 2020, published 2023).

Legend:
[1] = Drug concentration in PEG 300 supernatant and precipitation in phosphate buffered saline (HPLC); assay type: physicochemical; details: after 24 hours in DPBS
Procedure: The vial was sonicated with 40° C. heat for 30 minutes and then was placed in the 40° C. oven overnight for 20 hours. […] The crystal fine particles were verified by following. 100 µL of the clear PEG 300 solution was added to a vial with 4.3 mL of Dulbecco’s phosphate buffered saline to mimic the ophthalmic vitreous humor. […] The solution stands overnight for 24 hours at room temperature. […] The solution was then centrifuged, and the supernatant was analyzed by HPLC. […] The solution was sonicated 10 minutes until clear. […] The crystal fine particles were verified by following. […] The vial was sonicated with 40° C. heat for 30 minutes and then was placed in the 40° C. oven overnight for 20 hours.

[2] = system: Calcium-reconstituted sheep blood; test: Activated clotting time (ACT) in calcium-reconstituted sheep blood; assay type: biochemical; details: individual drug at 0.6 ng/mg
Procedure: The activated clotting time (ACT) evaluation of anticoagulants was performed in Calcium-reconstituted sheep blood and recorded employing the Hemochron® Response device. […] A target amount of drug solution was then added into the test tube. […] The tube was gently shaken before being inserted into the Hemochron Response detector. The ACT read out was recorded and reported. The ACT of the control blood in the absence of any drug as first determined to establish a baseline. Then ACT was determined in the presence of different concentrations of the drug as a single component. Selected drug combinations, were then tested to evaluate for potential synergy in action between the two drugs.

[3] = system: porcine coronary artery; test: Histopathology scores and QCA of anticoagulant eluting stents in porcine coronary artery model (Examples 2, 3); assay type: in vivo
Procedure: The mean score was calculated and reported. […] The smaller the fibrin score, the better efficacy.

[4] = In vivo drug released from / remaining on stent (HPLC); parameters: species or system porcine
Description: The stented artery was cut longitudinally with surgical scissors. The stents were separated from the tissue.

[5] = Example 3 stent, within 28 days

For COc1ccc(-n2nc(C(N)=O)c3c2C(=O)N(c2ccc(N4CCCCC4=O)cc2)CC3)cc1 [Apixaban], the “Fraction precipitated out to crystalline form” value [1] was 33% and the ACT [2] was 522.

With CC1CNc2c(cccc2S(=O)(=O)N[C@@H](CCCNC(=N)N)C(=O)N2CC[C@@H](C)C[C@@H]2C(=O)O)C1 (stereo partly shown) [Argatroban] the “Inhibition of fibrin formation compared to bare metal control stents” value ([3]; 7 days) was “not more effective” and the ACT [2] was 301.

For O=C(NC[C@H]1CN(c2ccc(N3CCOCC3=O)cc2)C(=O)O1)c1ccc(Cl)s1 [Rivaroxaban], the “Inhibition of fibrin formation compared to bare metal control stents” value ([3]; 7 days) was “more effective”, the “Inhibition of fibrin formation compared to control” value ([3]; Example 3, fast release formulation, 7 days and/or 28 days) was “more effective” and the “Rivaroxaban amount released from stent” value ([4]; Example 3 stent, in combination with m-TOR inhibitor formulation, within 7 days) was “about 68.1 µg”. The “Percent of rivaroxaban released from stent” value [4, 5] was “about 92.5%”, the “Rivaroxaban dose released from stent” value [4, 5] was “about 92.5 µg” and the “Cumulative Percent Release of drug by day 7, Rivaroxaban” value ([4]; Rivaroxaban/Argatroban combination stent) was “about 70.9%”. The “Cumulative Percent Release of drug by day 7” value ([4]; single-drug stent) was “about 99.5%”.

With Dalteparin the “Inhibition of fibrin formation compared to bare metal control stents” value ([3]; 7 days) was “not more effective” and the “Inhibition of smooth muscle cell proliferation (LLL) compared to bare metal control stents” value ([3]; 7 days) was “not more effective”.
